# Where a SMILES comes first, the peptide text is derived from it. Bridges are numbered along the chain shown (N, C = ends). [ ]: non-standard residue; d: D form. The star is where a group is joined. X47 = O=C(c1cc2cc(Cl)ccc2[nH]1)*; X23 = O=C(c1cc2ccccc2[nH]1)*; X27 = O=C(c1sc2ccccc2c1Cl)*; X5 = Cc1ccc2nc(C(=O)*)cn2c1; X50 = O=C(c1sc(Br)cc1Br)*; X13 = O=C(c1ccnc(Br)c1)*; X29 = O=C(c1cc(Cl)ccn1)*; X54 = O=C(c1cccc(Cl)n1)*; Dab = NCC[C@H](N)C(=O)O; Abu = CC[C@H](N)C(=O)O; Dap = NC[C@H](N)C(=O)O; X8 = O=C(c1ccnc(F)c1)*
# How the values were obtained:
# Assay type in all cases: cell-based
# [1] = system: Acinetobacter baumannii FADDI-AB030; test: microbe, parasite or virus in culture; details: FADDI-AB030
# Outline: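 Lipopeptide TFA salts tested against the multidrug-resistant clinical isolate by CLSI (M100-S24) broth microdilution in cation-adjusted Mueller-Hinton broth, with polymyxin B sulphate as control; MIC read.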
# [2] = system: Acinetobacter baumannii ATCC 17978; details: ATCC 17978
# Outline: (§1)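 Following CLSI procedure M100-S24, minimum inhibitory concentrations of trifluoroacetate lipopeptides are measured in cation-adjusted Mueller-Hinton medium by broth microdilution, alongside a polymyxin B sulphate control.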
# [3] = system: Klebsiella pneumoniae FADDI-KP022; details: FADDI-KP022
# Outline: as §1
# [4] = system: Pseudomonas aeruginosa FADDI-PA022; details: FADDI-PA022
# Outline: as §1
# [5] = system: Pseudomonas aeruginosa FADDI-PA01; details: FADDI-
# Outline: as §1
# [6] = system: Enterobacter cloacae FADDI-EC006; details: FADDI-EC006
# Outline: as §1
# [7] = system: Klebsiella pneumoniae FADDI-KP032; details: FADDI-KP032
# Outline: as §1
# [8] = system: Pseudomonas aeruginosa FADDI-PA038; details: FADDI-PA038
# Outline: as §1
# [9] = system: Klebsiella pneumoniae Kp BM1; details: Kp BM1
# Outline: (§2)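 Lipopeptides (TFA salts) tested against Gram-negative strains by CLSI broth microdilution using cation-adjusted Mueller-Hinton broth; MIC recorded, polymyxin B sulphate as control.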
# [10] = system: Acinetobacter baumannii FADDI-AB034; details: FADDI-AB034
# Outline: as §1
# [11] = system: Enterobacter cloacae FADDI-EC003; details: FADDI-EC003
# Outline: as §1
# [12] = system: Enterobacter cloacae FADDI-EC001; details: FADDI-EC001
# Outline: as §2
# [13] = system: Pseudomonas aeruginosa ATCC 27853; details: ATCC 27853
# Outline: as §1
Structure (SMILES),Minimum inhibitory concentration [1] [µg/mL],Minimum inhibitory concentration [2] [µg/mL],Minimum inhibitory concentration [3] [µg/mL],Minimum inhibitory concentration [4] [µg/mL],Minimum inhibitory concentration [5] [µg/mL],Minimum inhibitory concentration [6] [µg/mL],Minimum inhibitory concentration [7] [µg/mL],Minimum inhibitory concentration [8] [µg/mL],Minimum inhibitory concentration [9] [µg/mL],Minimum inhibitory concentration [10] [µg/mL],Minimum inhibitory concentration [11] [µg/mL],Minimum inhibitory concentration [12] [µg/mL],Minimum inhibitory concentration [13] [µg/mL]
CC[C@@H]1NC(=O)[C@@H](CC(C)C)NC(=O)[C@H](CCN)NC(=O)[C@@H](NC(=O)[C@H](CN)NC(=O)[C@@H](NC(=O)[C@H](CCN)NC(=O)c2sc3ccccc3c2Cl)[C@@H](C)O)CCNC(=O)[C@H]([C@@H](C)O)NC(=O)[C@H](CCN)NC(=O)[C@H](CCN)NC1=O [Compound 61] (X27-[Dab]T[Dap][Dab][Dab][dL][Abu][Dab][Dab]T; lactam 4-C),<0.125,<0.125,<0.125,0.25,<0.125,<0.125,<0.125,0.25,0.25,<0.125,<0.125,0.25,0.25
CC[C@@H]1NC(=O)[C@@H](CC(C)C)NC(=O)[C@H](CCN)NC(=O)[C@@H](NC(=O)[C@H](CN)NC(=O)[C@@H](NC(=O)[C@H](CCN)NC(=O)c2cn3cc(C)ccc3n2)[C@@H](C)O)CCNC(=O)[C@H]([C@@H](C)O)NC(=O)[C@H](CCN)NC(=O)[C@H](CCN)NC1=O [Compound 49] (X5-[Dab]T[Dap][Dab][Dab][dL][Abu][Dab][Dab]T; lactam 4-C),1,2,<0.125,0.5,0.25,1,<0.125,0.5,0.25,4,<0.125,<0.125,0.25
CC(C)C[C@H]1NC(=O)[C@H](CCN)NC(=O)[C@@H](NC(=O)[C@H](CN)NC(=O)[C@@H](NC(=O)[C@H](CCN)NC(=O)c2cc(Cl)ccn2)[C@@H](C)O)CCNC(=O)[C@H]([C@@H](C)O)NC(=O)[C@H](CCN)NC(=O)[C@H](CCN)NC(=O)[C@H]([C@@H](C)O)NC1=O [Compound 98] (X29-[Dab]T[Dap][Dab][Dab][dL]T[Dab][Dab]T; lactam 4-C),1,2,<0.125,0.25,0.25,0.5,0.25,8,0.25,2,<0.125,<0.125,0.25
CC[C@@H]1NC(=O)[C@@H](CC(C)C)NC(=O)[C@H](CCN)NC(=O)[C@@H](NC(=O)[C@H](CN)NC(=O)[C@@H](NC(=O)[C@H](CCN)NC(=O)c2ccnc(F)c2)[C@@H](C)O)CCNC(=O)[C@H]([C@@H](C)O)NC(=O)[C@H](CCN)NC(=O)[C@H](CCN)NC1=O [Compound 31] (X8-[Dab]T[Dap][Dab][Dab][dL][Abu][Dab][Dab]T; lactam 4-C),2,2,<0.125,0.25,0.25,1,1,0.5,1,2,0.5,0.5,0.25
CC[C@@H]1NC(=O)[C@@H](CC(C)C)NC(=O)[C@H](CCN)NC(=O)[C@@H](NC(=O)[C@H](CN)NC(=O)[C@@H](NC(=O)[C@H](CCN)NC(=O)c2sc(Br)cc2Br)[C@@H](C)O)CCNC(=O)[C@H]([C@@H](C)O)NC(=O)[C@H](CCN)NC(=O)[C@H](CCN)NC1=O [Compound 85] (X50-[Dab]T[Dap][Dab][Dab][dL][Abu][Dab][Dab]T; lactam 4-C),<0.125,<0.125,<0.125,0.25,0.25,<0.125,<0.125,0.5,0.25,0.25,0.25,0.25,0.25
CC[C@@H]1NC(=O)[C@@H](CC(C)C)NC(=O)[C@H](CCN)NC(=O)[C@@H](NC(=O)[C@H](CN)NC(=O)[C@@H](NC(=O)[C@H](CCN)NC(=O)c2ccnc(Br)c2)[C@@H](C)O)CCNC(=O)[C@H]([C@@H](C)O)NC(=O)[C@H](CCN)NC(=O)[C@H](CCN)NC1=O [Compound 25] (X13-[Dab]T[Dap][Dab][Dab][dL][Abu][Dab][Dab]T; lactam 4-C),1,1,<0.125,0.25,0.25,2,0.25,1,0.25,1,<0.125,0.5,0.25
CC[C@@H]1NC(=O)[C@@H](CC(C)C)NC(=O)[C@H](CCN)NC(=O)[C@@H](NC(=O)[C@H](CN)NC(=O)[C@@H](NC(=O)[C@H](CCN)NC(=O)c2cc3cc(Cl)ccc3[nH]2)[C@@H](C)O)CCNC(=O)[C@H]([C@@H](C)O)NC(=O)[C@H](CCN)NC(=O)[C@H](CCN)NC1=O [Compound 59] (X47-[Dab]T[Dap][Dab][Dab][dL][Abu][Dab][Dab]T; lactam 4-C),0.5,0.5,<0.125,0.5,0.25,0.5,0.25,1,0.5,<0.125,0.25,0.25,0.5
CC[C@@H]1NC(=O)[C@@H](CC(C)C)NC(=O)[C@H](CCN)NC(=O)[C@@H](NC(=O)[C@H](CN)NC(=O)[C@@H](NC(=O)[C@H](CCN)NC(=O)c2cccc(Cl)n2)[C@@H](C)O)CCNC(=O)[C@H]([C@@H](C)O)NC(=O)[C@H](CCN)NC(=O)[C@H](CCN)NC1=O [Compound 43] (X54-[Dab]T[Dap][Dab][Dab][dL][Abu][Dab][Dab]T; lactam 4-C),4,4,<0.125,0.25,0.25,0.5,0.25,1,0.25,4,0.25,<0.125,0.25
CC(C)C[C@H]1NC(=O)[C@H](CCN)NC(=O)[C@@H](NC(=O)[C@H](CN)NC(=O)[C@@H](NC(=O)[C@H](CCN)NC(=O)c2cc3ccccc3[nH]2)[C@@H](C)O)CCNC(=O)[C@H]([C@@H](C)O)NC(=O)[C@H](CCN)NC(=O)[C@H](CCN)NC(=O)[C@H](C)NC1=O [Compound 67] (X23-[Dab]T[Dap][Dab][Dab][dL]A[Dab][Dab]T; lactam 4-C),1,2,0.5,0.25,0.5,1,0.5,1,0.5,1,0.5,0.5,0.25

# From patent publication US11225505B2, “Antimicrobial polymyxin derivative compounds” (MONASH UNIVERSITY, priority 2015, dated 2022)
